Data on five compounds can be found in patent US10617675B2, “Hepatitis C virus inhibitors” (BRISTOL-MYERS SQUIBB COMPANY, priority 2015, dated 2020).

One assay concerns HCV. The assay can be described thus: Relative (synergistic) activity of separated diastereomers. The format is cell-based, Hepatitis C virus. The following applies: comparison within the set of three diastereomers; first eluting isomer.
Assay [1] concerns HCV genotype-1a variant with glutamine 30 changed to glutamate in the NS5A protein. The following applies: genotype-1a Q30E NS5A variant, cited from earlier work.
For assay [2] the test system is unchanged. The format is cell-based, Hepatitis C virus. The following applies: genotype-1a Q30E; BMS-790052 titrated with 200 nM P-55 versus singly. From the text:
The NS5A synergistic inhibitory effect of test compounds can be determined using various amounts of an NS5A-targeting compound with titration of a second compound of interest. […] The test compound can be chosen from compounds listed above or from others present in the literature.

Where two headings read alike, the source gives them in different places.

Regarding `CN(C)C(=O)OC(C)(C(=O)N[C@H](c1ncc(-c2ccc(-c3ccc(-c4cnc([C@@H](NC(=O)C(C)(OC(=O)N(C)C)C(C)(C)CF)C(C)(C)C)[nH]4)cc3)cc2)[nH]1)C(C)(C)C)C(C)(C)CF` (single isomer, unassigned) [Example Y1], the “activity relative to the other separated diastereomers” value with HCV is “most active of the set”. The same measure, in the same setting: to `CC(C)(C)[C@H](NC(=O)C1(CO)OC2CCC1CC2)c1nc(-c2ccc(-c3ccc(-c4c[nH]c([C@@H](NC(=O)C5(CO)OC6CCC5CC6)C(C)(C)C)n4)cc3)cc2)c[nH]1` (single isomer, unassigned) [Example Y14] belongs “most active isomer”.

In general, EC50 refers to the concentration that produces a half-maximal response. Regarding `COC(=O)N[C@H](C(=O)N1CCC[C@H]1c1nc(-c2ccc(-c3ccc(-c4c[nH]c([C@@H]5CCCN5C(=O)[C@@H](NC(=O)OC)C(C)C)n4)cc3)cc2)c[nH]1)C(C)C` [BMS-790052], the EC50 in assay [1] (P-55 fixed at 200 nM, read-out: EC50 of BMS-790052 in the presence of a fixed amount of P-55) is about 2 nM; in assay [1] (single agent, read-out: EC50, compound titrated singly) it was about 200 nM. Further, the “reciprocal synergistic inhibitory effect for the combination” value in assay [2] is reported as about 100 fold. In the case of `CC(C)(C)[C@H](NC(=O)C(C)(OC(=O)N1CCC1)C1(C)CC1)c1nc(-c2ccc(-c3ccc(-c4c[nH]c([C@@H](NC(=O)C(C)(OC(=O)N5CCC5)C5(C)CC5)C(C)(C)C)n4)cc3)cc2)c[nH]1` (stereo partly shown) [Example Y19a], the “activity relative to the other separated diastereomers” value in the assay on HCV is listed as “most synergistically active of the three”. With `COC(=O)N1CC(F)(F)CC1(C)C(=O)N[C@H](c1nc2ccc(-c3cnc(-c4ccc5nc([C@@H](NC(=O)C6(C)CC(F)(F)CN6C(=O)OC)C(C)(C)C)[nH]c5c4)cn3)cc2[nH]1)C(C)(C)C` (stereo partly shown) [Example Y20], in the assay on HCV, the “activity relative to the other separated diastereomers” value is “most synergistically active of the three”.
